# According to patent US20040009988A1 (priority 2000, published 2004):
# Molecular target: human MTP (Homo sapiens, UniProt P55157)
# Test: human MTP activity assay (SPA, 3H-triolein transfer between liposomes)
# Assay type: biochemical
# Conditions: MTP-mediated 3H-triolein transfer from donor to acceptor liposomes, 25 min at 37° C., streptavidin-SPA beads
# Experimental: The ability of the compounds of this invention to inhibit human MTP activity is measured by an in vitro assay where MTP tranfers 3H-triolein between phosphatidylcholine liposomes. The specificity of the compounds of the invention is established by comparing the effects on apoB-100 and apoprotein A-1 production. A specificity of at least 100 is preferred.
# The human MTP activity assay was established using SPA technology. Donor liposomes were prepared with 3H-triolein and phosphatidylcholine, while acceptor liposomes contained biotinylated phosphatidylethanolamine and phosphatidylcholine. The MTP-mediated 3H-triolein transfer onto acceptor liposomes was allowed by a 25 min incubation at 37° C., and quantified by the addition of streptavidin-SPA beads.
# Sequence of human MTP (P55157 19-894): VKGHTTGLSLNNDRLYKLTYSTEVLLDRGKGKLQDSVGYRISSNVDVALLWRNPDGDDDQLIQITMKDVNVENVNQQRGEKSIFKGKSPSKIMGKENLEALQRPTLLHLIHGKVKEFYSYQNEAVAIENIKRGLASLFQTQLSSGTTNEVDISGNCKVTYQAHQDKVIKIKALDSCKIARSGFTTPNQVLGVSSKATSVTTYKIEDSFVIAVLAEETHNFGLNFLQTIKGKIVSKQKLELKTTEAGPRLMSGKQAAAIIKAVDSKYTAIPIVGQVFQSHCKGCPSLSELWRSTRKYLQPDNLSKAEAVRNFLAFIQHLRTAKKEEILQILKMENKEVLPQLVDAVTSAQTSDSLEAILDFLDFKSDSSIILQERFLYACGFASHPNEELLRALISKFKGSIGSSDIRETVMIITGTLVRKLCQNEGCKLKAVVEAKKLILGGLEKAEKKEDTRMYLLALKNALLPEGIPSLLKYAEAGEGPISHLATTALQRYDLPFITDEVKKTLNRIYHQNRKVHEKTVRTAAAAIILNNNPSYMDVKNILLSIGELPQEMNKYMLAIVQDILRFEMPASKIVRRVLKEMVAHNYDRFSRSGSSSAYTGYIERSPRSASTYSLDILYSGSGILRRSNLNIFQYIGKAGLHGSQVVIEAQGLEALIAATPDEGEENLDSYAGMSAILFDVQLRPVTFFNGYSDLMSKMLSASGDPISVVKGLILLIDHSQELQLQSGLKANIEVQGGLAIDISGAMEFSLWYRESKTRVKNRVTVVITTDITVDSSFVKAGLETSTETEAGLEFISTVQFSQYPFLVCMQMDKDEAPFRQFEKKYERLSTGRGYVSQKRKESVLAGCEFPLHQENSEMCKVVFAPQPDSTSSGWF
# Sequence of human MTP (P07237 18-508 partner): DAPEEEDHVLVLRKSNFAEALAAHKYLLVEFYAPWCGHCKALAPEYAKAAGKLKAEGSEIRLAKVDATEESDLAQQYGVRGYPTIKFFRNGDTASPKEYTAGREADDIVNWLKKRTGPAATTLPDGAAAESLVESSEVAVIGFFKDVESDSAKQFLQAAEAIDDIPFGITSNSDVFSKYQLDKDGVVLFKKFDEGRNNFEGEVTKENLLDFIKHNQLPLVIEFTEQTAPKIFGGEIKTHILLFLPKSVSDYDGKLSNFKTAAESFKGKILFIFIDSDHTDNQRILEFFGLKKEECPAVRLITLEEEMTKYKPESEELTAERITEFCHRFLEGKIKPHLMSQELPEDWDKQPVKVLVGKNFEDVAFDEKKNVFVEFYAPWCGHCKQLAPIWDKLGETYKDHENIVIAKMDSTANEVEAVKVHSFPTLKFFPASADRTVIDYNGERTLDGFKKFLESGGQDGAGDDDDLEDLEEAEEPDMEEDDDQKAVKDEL
row,Structure (SMILES),IC50 [nM]
1,"Cc1cccc(C(=O)Nc2ccc(N3CCN(CC(N)=O)CC3)nc2)c1-c1ccc(C(C)C)cc1 [Example 1, 4′-Isopropyl-6-methyl-biphenyl-2-carboxylic acid [2-(4-carbamoylmethyl-piperazin-1-yl)-pyridin-5-yl]-amide]",0.3
2,"Cc1cccc(C(=O)Nc2ccc(N3CCN(Cc4ccc[nH]4)CC3)nc2)c1-c1ccc(C(C)C)cc1 [Example 5, 4′-Isopropyl-6-methyl-biphenyl-2-carboxylic acid [2-(4-(1H-pyrrol-2-ylmethyl)piperazin-1-yl)-pyridin-5-yl]-amide]",0.1
3,C=CCN1CCN(c2ccc(NC(=O)c3cccc(C(C)C)c3-c3ccc(C(C)C)cc3)cn2)CC1 [Example 25],< 0.1
4,"CC(C)c1ccc(-c2c(C(=O)Nc3ccc(N4CCN(Cc5cccc(C#N)c5)CC4)nc3)cccc2C(C)C)cc1 [Example 15, 4′,6-Diisopropyl-biphenyl-2-carboxylic acid [2-(4-(3-cyano-benzyl)-piperazin-1-yl)-pyridin-5-yl]-amide]",0.16

# Test system: not given
# Test: not given
# Conditions: not given
row,Structure (SMILES),melting point [°C]
1,"Cc1noc(-c2cccc(CN3CCN(c4ccc(NC(=O)c5cccc(C(C)C)c5-c5ccc(C(C)C)cc5)cn4)CC3)c2)n1 [Example 13, 4′,6-Diisopropyl-biphenyl-2-carboxylic acid [2-(4-(3-(3-methyl-[1,2,4]oxadiazol-5-yl)-benzyl)-piperazin-1-yl)-pyridin-5-yl]-amide]",125
2,"CCCN1CCN(c2ccc(NC(=O)c3cccc(C(C)C)c3-c3ccc(C(C)C)cc3)cn2)CC1 [Example 23, 4′,6-Diisopropyl-biphenyl-2-carboxylic acid-[2-(4-propyl-piperazin-1-yl)-pyridin-5-yl]-amide]",126 to 128
3,"Cc1ccc(C(=O)Nc2ccc(N3CCN(Cc4cccc(C#N)c4)CC3)nc2)c(-c2ccc(C(C)C)cc2)c1 [Example 21, 4′-Isopropyl-5-methyl-biphenyl-2-carboxylic acid [2-(4-(3-cyano-benzyl)-piperazin-1-yl)-pyridin-5-yl]-amide]",161 to 163
4,"COc1cccc(C(=O)Nc2ccc(N3CCN(CC(N)=O)CC3)nc2)c1-c1ccc(C(C)C)cc1 [Example 3, 4′-Isopropyl-6-methoxy-biphenyl-2-carboxylic acid [2-(4-carbamoylmethyl-piperazin-1-yl)-pyridin-5-yl]-amide]",210 to 212
5,"Cc1cccc(C(=O)Nc2ccc(N3CCN(CC(N)=O)CC3)nc2)c1-c1ccc(C(F)(F)F)cc1 [Example 2, 6-Methyl-4′-trifluoromethyl-biphenyl-2-carboxylic acid [2-(4-carbamoylmethyl-piperazin-1-yl)-pyridin-5-yl]-amide]",180 to 181
6,"COc1cccc(C(=O)Nc2ccc(N3CCN(Cc4cccc(-c5nc(C)no5)c4)CC3)nc2)c1-c1ccc(C(C)C)cc1 [Example 12, 4′-Isopropyl-6-methoxy-biphenyl-2-carboxylic acid [2-(4-(3-(3-methyl-[1,2,4]oxadiazol-5-yl)-benzyl)-piperazin-1-yl)-pyridin-5-yl]-amide]",136 to 138
7,"Cc1cccc(C(=O)Nc2ccc(N3CCN(Cc4ccc[nH]4)CC3)nc2)c1-c1ccc(C(F)(F)F)cc1 [Example 6, 6-Methyl4′-trifluoromethyl-biphenyl-2-carboxylic acid [2-(4-(1H-pyrrol-2-ylmethyl)piperazin-1-yl)-pyridin-5-yl]-amide]",142 to 144
8,"CC(C)c1ccc(-c2c(C(=O)Nc3ccc(N4CCN(CC(N)=O)CC4)nc3)cccc2C(C)C)cc1 [Example 4, 4′,6-Diisopropyl-biphenyl-2-carboxylic acid [2-(4-carbamoylmethyl-piperazin-1-yl)-pyridin-5-yl]-amide]",169
9,"N#Cc1cccc(CN2CCN(c3ccc(NC(=O)c4ccccc4-c4ccc(C(F)(F)F)cc4)cn3)CC2)c1 [Example 17, 4′-Trifluoromethyl-biphenyl-2-carboxylic acid [2-(4-(3-cyano-benzyl)-piperazin-1-yl)-pyridin-5-yl]-amide]",168
10,"CC(C)c1ccc(-c2c(C(=O)Nc3ccc(N4CCN(C)CC4)nc3)cccc2C(C)C)cc1 [Example 24, 4′,6-Diisopropyl-biphenyl-2-carboxylic acid-[2-(4-methyl-piperazin-1-yl)-pyridin-5-yl]-amide]",152 to 154
11,"Cc1cccc(C(=O)Nc2ccc(N3CCN(CC(N)=O)CC3)nc2)c1-c1ccc(C(C)C)cc1 [Example 1, 4′-Isopropyl-6-methyl-biphenyl-2-carboxylic acid [2-(4-carbamoylmethyl-piperazin-1-yl)-pyridin-5-yl]-amide]",200 to 202
12,"Cc1noc(-c2cccc(CN3CCN(c4ccc(NC(=O)c5cccc(C)c5-c5ccc(C(C)C)cc5)cn4)CC3)c2)n1 [Example 10, 4′-Isopropyl-6-methyl-biphenyl-2-carboxylic acid [2-(4-(3-(3-methyl-[1,2,4]oxadiazol-5-yl)-benzyl)-piperazin-1-yl)-pyridin-5-yl]-amide]",150 to 152
13,"Cc1cccc(C(=O)Nc2ccc(N3CCN(Cc4ccc[nH]4)CC3)nc2)c1-c1ccc(C(C)C)cc1 [Example 5, 4′-Isopropyl-6-methyl-biphenyl-2-carboxylic acid [2-(4-(1H-pyrrol-2-ylmethyl)piperazin-1-yl)-pyridin-5-yl]-amide]",130
14,"C=C(C)N1CCN(c2ccc(NC(=O)c3cccc(C(C)C)c3-c3ccc(C(C)C)cc3)cn2)CC1 [Example 25, 4′,6-Diisopropyl-biphenyl-2-carboxylic acid-[2-(4-(propen-2-yl)-piperazin-1-yl)-pyridin-5-yl]-amide]",124
15,"Cc1cccc(C(=O)Nc2ccc(N3CCN(Cc4cccc(C#N)c4)CC3)nc2)c1-c1ccc(C(C)C)cc1 [Example 19, 4′-Isopropyl-6-methyl-biphenyl-2-carboxylic acid [2-(4-(3-cyano-benzyl)-piperazin-1-yl)-pyridin-5-yl]-amide]",154 to 156
16,"CC(C)c1ccc(-c2c(C(=O)Nc3ccc(N4CCN(C(C)C)CC4)nc3)cccc2C(C)C)cc1 [Example 26, 4′,6-Diisopropyl-biphenyl-2-carboxylic acid-[2-(4-(isopropyl)-piperazin-1-yl)-pyridin-5-yl]-amide]",136
17,"COc1cccc(C(=O)Nc2ccc(N3CCN(Cc4ccc[nH]4)CC3)nc2)c1-c1ccc(C(C)C)cc1 [Example 7, 4′-Isopropyl-6-methoxy-biphenyl-2-carboxylic acid [2-(4-(1H-pyrrol-2-ylmethyl)piperazin-1-yl)-pyridin-5-yl]-amide]",197 to 199
18,"Cc1cccc(C(=O)Nc2ccc(N3CCN(Cc4cccc(C#N)c4)CC3)nc2)c1-c1ccc(C(F)(F)F)cc1 [Example 20, 6-Methyl-4′-trifluoromethyl-biphenyl-2-carboxylic acid [2-(4-(3-cyano-benzyl)-piperazin-1-yl)-pyridin-5-yl]-amide]",164 to 166
19,"Cc1noc(-c2cccc(CN3CCN(c4ccc(NC(=O)c5ccccc5-c5ccc(C(F)(F)F)cc5)cn4)CC3)c2)n1 [Example 9, 4′-Trifluoromethyl-biphenyl-2-carboxylic acid [2-(4-(3-(3-methyl-[1,2,4]oxadiazol-5-yl)-benzyl)-piperazin-1-yl)-pyridin-5-yl]-amide]",192 to 194
20,"COc1cccc(C(=O)Nc2ccc(N3CCN(Cc4cccc(C#N)c4)CC3)nc2)c1-c1ccc(C(C)C)cc1 [Example 18, 4′-Isopropyl-6-methoxy-biphenyl-2-carboxylic acid [2-(4-(3-cyano-benzyl)-piperazin-1-yl)-pyridin-5-yl]-amide]",194 to 196
21,"O=C(Nc1ccc(N2CCN(Cc3ccco3)CC2)nc1)c1ccccc1-c1ccc(C(F)(F)F)cc1 [Example 14, 4′-Trifluoromethyl-biphenyl-2-carboxylic acid [2-(4-(furan-2-ylmethyl)piperazin-1-yl)-pyridin-5-yl]-amide]",149
22,"Cc1ccc(C(=O)Nc2ccc(N3CCN(Cc4cccc(C#N)c4)CC3)nc2)c(-c2ccc(C(F)(F)F)cc2)c1 [Example 22, 5-Methyl-4′-trifluoromethyl-biphenyl-2-carboxylic acid [2-(4-(3-cyano-benzyl)-piperazin-1-yl)-pyridin-5-yl]-amide]",158 to 160
23,"CC(C)c1ccc(-c2c(C(=O)Nc3ccc(N4CCN(Cc5cccc(C#N)c5)CC4)nc3)cccc2C(C)C)cc1 [Example 15, 4′,6-Diisopropyl-biphenyl-2-carboxylic acid [2-(4-(3-cyano-benzyl)-piperazin-1-yl)-pyridin-5-yl]-amide]",151
